Experimental data: US12448352B2, “Beta adrenergic agonist and methods of using the same” (Curasen Therapeutics, Inc., priority 2019, dated 2025)

Tests used:
[1] = Mouse pharmacokinetic study (plasma); assay type: in vivo, male C57BL/6J mice; details: PO 5 mg/kg
Procedure: (§1) The rat pharmacokinetics studies of exemplary compounds 03-3, 03-5, and 03-115 were conducted with male SD rats. These rats were typically about 6-8 weeks old, weighing 200 g to 300 g. Animals were fasted overnight and free access to food 4 hours after dosing. A required volume of vehicle was added to reach the target concentration of the test article and vehicle component to prepare for the dosing. The dosing vehicle was PEG400 or 30% PEG400 in saline for IV, or 0.5% methylcellulose in water for PO. For IV dosing, the animals were administered intravenously via tail vein. For PO dosing, the animals were administered via oral gavage. After dosing, blood sample was collected (˜0.2 mL per time point) through jugular vein or heart puncture. Blood of each sample was transferred into plastic micro centrifuge tubes containing EDTA-K2. Collection tubes with blood samples and anticoagulant were inverted several times for proper mixing of the tube contents and then placed on wet ice. The blood samples were centrifuged at 2000 g for 5 minutes at 4° C. to obtain plasma which was stored in a freezer at −75±15° C. prior to analysis. Samples were analyzed using LC-MS/MS. WinNonlin were used for pharmacokinetic calculations.
Mouse pharmacokinetics studies of exemplar compounds 03-3 and 03-5 were conducted substantially similarly to the rat pharmacokinetic studies, instead using male C57BL/6J mice. These mice were typically about 6-8 weeks old, weighing 20 g to 30 g. Animals were free access to food before dosing. Sample amount was ˜0.03 mL per time point and sample site was dorsal metatarsal or heart puncture.

[2] = Rat pharmacokinetic study (plasma); assay type: in vivo, male SD rats
Procedure: as §1

## Cc1ncccc1[C@@H](O)CNC(C)(C)C [Compound 03-115]
[1]
  AUCInf: 3018 ng·h/mL
  Cmax: 1751 ng/mL
  MRTInf_obs: 108 min
  Tmax: 30 min
[2]; IV 1 mg/kg
  AUCInf: 164 ng·h/mL
  C0: 512 ng/mL
  T1/2: 21.6 min
  Vss_obs: 2.4 L/kg
[2]; PO 5 mg/kg
  AUCInf: 192 ng·h/mL
  Cmax: 174 ng/mL
  MRTInf_obs: 63.6 min
  T1/2: 96.6 min
  Tmax: 15 min
